Holding throughout (format): cell-based, Human
In test [1] the test system is MCF7 TP53 KO 5.6 pool. As to the kind of experiment: Drug screening, resazurin, TP53 KO 5.6 pool.
Test [2] relates to MCF7 WT Parental pool. As to the kind of experiment: Drug screening, resazurin, MCF7 wild type parental pool.
Test [3] deals with MCF7 TP53 KO 3.4 pool. As to the kind of experiment: Drug screening, resazurin, TP53 KO 3.4 pool.
Where [4] appears, read: ten-day drug treatment, 156.25 nM to 10 μM, resazurin fluorescence.

Structures can show the parent of a compound that is named as a salt. Where two headings read alike, the source gives them in different places.

`Nc1cccc2c1CN(C1CCC(=O)NC1=O)C2=O` (stereo not drawn) [Lenalidomide]: the “TP53 KO 5.6 pool (AUC)” value in test [1] (setting [4]) is recorded as 8.801. In addition, the “MCF7 WT Parental pool (AUC)” value in test [2] (setting [4]) is on record as 8.724. Also, the “TP53 KO 3.4 pool (AUC)” value in test [3] (setting [4]) worked out at 8.782.
Taken in the same sequence, the figures for `C1CN1c1nc(N2CC2)nc(N2CC2)n1` [Triethyleneme1amine] were 2.319, 2.223 and 2.224.
Regarding `c1cc(CN2CCCNCCNCCCNCC2)ccc1CN1CCCNCCNCCCNCC1` [Plerixafor], the “TP53 KO 5.6 pool (AUC)” value in test [1] (setting [4]) is 8.524. In test [2] (setting [4]), the “MCF7 WT Parental pool (AUC)” value is given as 9. Moreover, the “TP53 KO 3.4 pool (AUC)” value in test [3] (setting [4]) is recorded as 8.893.
For the compound `Nc1ccn([C@@H]2O[C@H](CO)[C@@H](O)C2(F)F)c(=O)n1` [Gemcitabine Hydrochloride], the “TP53 KO 5.6 pool (AUC)” value in test [1] (setting [4]) is 1.827. Further, in test [2] (setting [4]), the “MCF7 WT Parental pool (AUC)” value is given as 2.888. In test [3] (setting [4]), the “TP53 KO 3.4 pool (AUC)” value amounted to 1.464.
Consider `Cc1cc(Nc2ncc(Cl)c(Nc3ccccc3S(=O)(=O)C(C)C)n2)c(OC(C)C)cc1C1CCNCC1` [Ceritinib], for which the “TP53 KO 5.6 pool (AUC)” value in test [1] (setting [4]) is reported as 1.421. Besides, in test [2] (setting [4]), the “MCF7 WT Parental pool (AUC)” value is on record as 1.637. Also, the “TP53 KO 3.4 pool (AUC)” value in test [3] (setting [4]) is 1.482.
For `NC(=O)NO` [Hydroxyurea], the “TP53 KO 5.6 pool (AUC)” value in test [1] (setting [4]) was 8.455. The “MCF7 WT Parental pool (AUC)” value in test [2] (setting [4]) is 9.246. For the same compound, the “TP53 KO 3.4 pool (AUC)” value in test [3] (setting [4]) amounted to 8.069.
For the compound `Nc1ncn([C@@H]2O[C@H](CO)[C@@H](O)[C@H]2O)c(=O)n1` [Azactidine], the “TP53 KO 5.6 pool (AUC)” value in test [1] (setting [4]) is listed as 6.373. The “MCF7 WT Parental pool (AUC)” value in test [2] (setting [4]) worked out at 8.861. Also, the “TP53 KO 3.4 pool (AUC)” value in test [3] (setting [4]) came out at 9.05.
Turning to `CCN(CC)CCNC(=O)c1c(C)[nH]c(/C=C2\C(=O)Nc3ccc(F)cc32)c1C` [Sunitinib], the “TP53 KO 5.6 pool (AUC)” value in test [1] (setting [4]) is listed as 3.758. The “MCF7 WT Parental pool (AUC)” value in test [2] (setting [4]) is given as 3.556. For the same compound, the “TP53 KO 3.4 pool (AUC)” value in test [3] (setting [4]) is given as 3.076.
Taken in the same sequence, the figures for `COC(=O)C[C@](O)(CCCC(C)(C)O)C(=O)O[C@@H]1C(OC)=C[C@]23CCCN2CCc2cc4c(cc2[C@H]13)OCO4` [Omacetaxine Mepesuccinate] were 0.7717, 0.7749 and 0.7692.
For `C/C=C1\NC(=O)[C@H]2CSSCC/C=C/[C@H](CC(=O)N[C@H](C(C)C)C(=O)N2)OC(=O)[C@H](C(C)C)NC1=O` [Romidepsin], in test [1], the “TP53 KO 5.6 pool (AUC)” value is listed as 0.5264. The “MCF7 WT Parental pool (AUC)” value in test [2] is reported as 0.5862. The “TP53 KO 3.4 pool (AUC)” value in test [3] was found to be 0.6551.
Consider `CO[C@@]12[C@H](COC(N)=O)C3=C(C(=O)C(C)=C(N)C3=O)N1C[C@@H]1N[C@@H]12` [Mitomycin], for which, in test [1] (setting [4]), the “TP53 KO 5.6 pool (AUC)” value is 0.912. For the same compound, the “MCF7 WT Parental pool (AUC)” value in test [2] (setting [4]) was found to be 1.122. Also, in test [3] (setting [4]), the “TP53 KO 3.4 pool (AUC)” value was found to be 1.003.
On to `CCCS(=O)(=O)Nc1ccc(F)c(C(=O)c2c[nH]c3ncc(-c4ccc(Cl)cc4)cc23)c1F` [Vemurafenib], for which, in test [1] (setting [4]), the “TP53 KO 5.6 pool (AUC)” value is recorded as 8.365. Besides, the “MCF7 WT Parental pool (AUC)” value in test [2] (setting [4]) is given as 8.722. The “TP53 KO 3.4 pool (AUC)” value in test [3] (setting [4]) is given as 7.987.
Take `COc1cc2ncnc(Nc3ccc(F)c(Cl)c3)c2cc1OCCCN1CCOCC1` [Gefintinib]: in test [1] (setting [4]), the “TP53 KO 5.6 pool (AUC)” value is listed as 8.242. For the same compound, the “MCF7 WT Parental pool (AUC)” value in test [2] (setting [4]) is on record as 8.974. Further, the “TP53 KO 3.4 pool (AUC)” value in test [3] (setting [4]) was determined as 7.676.
Consider `CCc1cc2c(cc1N1CCC(N3CCOCC3)CC1)C(C)(C)c1[nH]c3cc(C#N)ccc3c1C2=O` [Alectinib], for which the “TP53 KO 5.6 pool (AUC)” value in test [1] (setting [4]) is on record as 2.7. Further, the “MCF7 WT Parental pool (AUC)” value in test [2] (setting [4]) was 5.763. The “TP53 KO 3.4 pool (AUC)” value in test [3] (setting [4]) was 4.51.
On to `CC/C(=C(\c1ccccc1)c1ccc(OCCN(C)C)cc1)c1ccccc1` [TamoxifenCitrate], for which the “TP53 KO 5.6 pool (AUC)” value in test [1] (setting [4]) is 7.798. For the same compound, in test [2] (setting [4]), the “MCF7 WT Parental pool (AUC)” value is on record as 7.863. Besides, the “TP53 KO 3.4 pool (AUC)” value in test [3] (setting [4]) came to 5.949.
Taken in the same sequence, the figures for `CC[C@H](Nc1ncnc2[nH]cnc12)c1nc2cccc(F)c2c(=O)n1-c1ccccc1` [Idelalisib] were 7.03, 7.566 and 7.039.
Taken in the same sequence, the figures for `Cc1cn(-c2cc(NC(=O)c3ccc(C)c(Nc4nccc(-c5cccnc5)n4)c3)cc(C(F)(F)F)c2)cn1` [Nilotinib] were 4.891, 5.834 and 6.967.
Turning to `O=C(c1ccc(F)c(F)c1Nc1ccc(I)cc1F)N1CC(O)([C@@H]2CCCCN2)C1` [Cobimetinib], the “TP53 KO 5.6 pool (AUC)” value in test [1] (setting [4]) was determined as 8.041. In test [2] (setting [4]), the “MCF7 WT Parental pool (AUC)” value is 7.621. The “TP53 KO 3.4 pool (AUC)” value in test [3] (setting [4]) was 4.851.

The values above are taken from US20190309272A1, “Genetically Modified Cell Lines Including a TP53 Modification and Methods of Use” (UNIVERSITY OF SOUTH CAROLINA, priority 2018, published 2019).
